# Data: publication PMC9558907, “Synthesis and pharmacological evaluation of newly detected synthetic cannabinoid receptor agonists AB-4CN-BUTICA, MMB-4CN-BUTINACA, MDMB-4F-BUTICA, MDMB-4F-BUTINACA and their analogs” (Frontiers in Psychiatry, 2022)
# Columns and labels:
# human CB1 [1] = biological target: T1, human CB1 (Homo sapiens, UniProt P21554); test: fluorescence-based membrane potential assay (GIRK activation) in AtT20 cells; format: cell-based; parameters: expressed in transfected cells; host or cells: mouse AtT20 FlpIn cells; conditions: for hCB1 Emax ±SEM: normalised to 1 μM CP55,940; for hCB1 maximal response at 10 μM (footnote d): highest concentration tested, curve not fitted
# T1 sequence (P21554 whole entry): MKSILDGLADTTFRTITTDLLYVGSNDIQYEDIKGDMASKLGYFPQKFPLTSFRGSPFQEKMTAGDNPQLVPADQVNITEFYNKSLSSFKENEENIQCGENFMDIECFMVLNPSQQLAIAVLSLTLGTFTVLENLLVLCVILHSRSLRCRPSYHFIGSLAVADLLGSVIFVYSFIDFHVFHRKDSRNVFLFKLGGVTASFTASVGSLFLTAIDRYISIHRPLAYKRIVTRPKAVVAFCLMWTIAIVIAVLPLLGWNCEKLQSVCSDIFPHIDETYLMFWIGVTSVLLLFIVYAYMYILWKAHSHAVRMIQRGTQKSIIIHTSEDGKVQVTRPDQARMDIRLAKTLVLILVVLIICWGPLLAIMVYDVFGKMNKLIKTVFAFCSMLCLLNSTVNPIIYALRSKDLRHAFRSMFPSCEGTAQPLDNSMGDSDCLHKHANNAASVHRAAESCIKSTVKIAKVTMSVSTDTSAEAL
# human CB2 [2] = biological target: T2, human CB2 (Homo sapiens, UniProt P34972); test: as above; format: cell-based; parameters: expressed in transfected cells; host or cells: mouse AtT20 FlpIn cells; conditions: for hCB2 Emax ±SEM: normalised to 1 μM CP55,940
# T2 sequence (P34972 whole entry): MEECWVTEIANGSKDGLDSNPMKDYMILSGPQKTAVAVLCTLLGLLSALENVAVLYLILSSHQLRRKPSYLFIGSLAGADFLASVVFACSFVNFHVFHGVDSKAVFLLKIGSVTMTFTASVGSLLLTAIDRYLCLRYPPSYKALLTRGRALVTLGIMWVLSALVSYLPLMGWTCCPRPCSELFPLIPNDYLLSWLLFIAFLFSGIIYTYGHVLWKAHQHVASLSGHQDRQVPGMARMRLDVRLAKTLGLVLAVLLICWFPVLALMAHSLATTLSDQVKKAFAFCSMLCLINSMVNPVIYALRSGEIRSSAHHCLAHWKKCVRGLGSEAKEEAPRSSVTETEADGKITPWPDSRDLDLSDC
# human CB1 [3] = biological target: T1, human CB1; test: competitive radioligand binding assay, displacement of [3H]CP55,940, HEK cell membranes; parameters: expressed in transfected cells; host or cells: HEK293 cells, P2 membrane preparation; conditions: [3H]CP55,940 1 nM
# human CB2 [4] = biological target: T2, human CB2; test: as above; parameters: expressed in transfected cells; host or cells: HEK293 cells, P2 membrane preparation; conditions: [3H]CP55,940 1 nM
# [5] = hCB1 EC50, AtT20-hCB1, value in brackets after pEC50
# [6] = hCB2 EC50, AtT20-hCB2, value in brackets after pEC50
# [7] = hCB1 Ki, value in brackets after pKi
# [8] = hCB2 Ki, value in brackets after pKi
# [9] = AtT20-hCB1, DNC = did not converge, ND = < 50% change in fluorescence at 10 μM
# [10] = hCB1 pKi ±SEM, mean ± SEM of 3 to 6 independent experiments
# [11] = hCB2 pKi ±SEM, mean ± SEM of 3 to 6 independent experiments
SMILES,melting point [°C],hCB1 Emax ±SEM (human CB1 [1]; AtT20-hCB1),EC50 (human CB1 [1]; [5]) [nM],hCB2 Emax ±SEM (human CB2 [2]; AtT20-hCB2),EC50 (human CB2 [2]; [6]) [nM],Ki (human CB1 [3]; [7]) [nM],Ki (human CB2 [4]; [8]) [nM],"EC50 (human CB2 [2]; hCB2 pEC50 ±SEM, AtT20-hCB2) [nM]",hCB1 maximal response at 10 μM (footnote d) (human CB1 [1]; AtT20-hCB1),"hCB1 maximal response at 10 μM (footnote d) (human CB1 [1]; AtT20-hCB1, listed as APP-4F-BUTICA (27))",hCB1 pEC50 ±SEM (human CB1 [1]; [9]),Ki (human CB1 [3]; [10]) [nM],Ki (human CB2 [4]; [11]) [nM],"EC50 (human CB1 [1]; hCB1 pEC50 ±SEM, AtT20-hCB1, DNC = did not converge, ND = < 50% change in fluorescence at 10 μM) [nM]"
"CC(C)[C@H](NC(=O)c1cn(CCCCF)c2ccccc12)C(N)=O [Compound 25, (S)-N-(1-amino-3-methyl-1-oxobutan-2-yl)-1-(4-fluorobutyl)-1H-indole-3-carboxamide]",225 to 227,"108 ± 3 % CP55,940",96.5,"97 ± 2 % CP55,940",23.5,1000,82,,,,,,,
"COC(=O)[C@@H](NC(=O)c1cn(CCCCF)c2ccccc12)C(C)C [Compound 34, methyl (1-(4-fluorobutyl)-1H-indole-3-carbonyl)-L-valinate]",111 to 114,"116 ± 3 % CP55,940",76.9,"102 ± 2 % CP55,940",11.4,97.7,26.9,11.2,,,,,,
"NC(=O)[C@H](Cc1ccccc1)NC(=O)c1cn(CCCCF)c2ccccc12 [Compound 27, (S)-N-(1-amino-1-oxo-3-phenylpropan-2-yl)-1-(4-fluorobutyl)-1H-indole-3-carboxamide]",102 to 104,,,"108 ± 8 % CP55,940",306,3200,170,,submaximal agonist activity,"82 ± 4^d % CP55,940",DNC^b,3160,174,
"CC(C)[C@H](NC(=O)c1nn(CCCCF)c2ccccc12)C(N)=O [Compound 28, (S)-N-(1-amino-3-methyl-1-oxobutan-2-yl)-1-(4-fluorobutyl)-1H-indazole-3-carboxamide]",188 to 190,"107 ± 2 % CP55,940",5.98,"96 ± 1 % CP55,940",4.85,,8.5,,,,,132,,
"COC(=O)[C@H](Cc1ccccc1)NC(=O)c1nn(CCCCF)c2ccccc12 [Compound 37, methyl (1-(4-fluorobutyl)-1H-indazole-3-carbonyl)-L-phenylalaninate]",,"106 ± 3 % CP55,940",5.62,"101 ± 3 % CP55,940",4.65,,0.5,,,,,33.9,0.457,
"COC(=O)[C@H](Cc1ccccc1)NC(=O)c1cn(CCCCC#N)c2ncccc12 [Compound 24, methyl (1-(4-cyanobutyl)-1H-pyrrolo[2,3-b]pyridine-3-carbonyl)-L-phenylalaninate]",102 to 105,"110 ± 5 % CP55,940",189,"104 ± 2 % CP55,940",14.3,380,55,,,,,,,186
"COC(=O)[C@H](Cc1ccccc1)NC(=O)c1cn(CCCCF)c2ncccc12 [Compound 40, methyl (1-(4-fluorobutyl)-1H-pyrrolo[2,3-b]pyridine-3-carbonyl)-L-phenylalaninate]",109 to 112,"122 ± 10 % CP55,940",637,"110 ± 6 % CP55,940",26.9,880,,,,,,,28.8,
"CC(C)[C@H](NC(=O)c1cn(CCCCF)c2ncccc12)C(N)=O [Compound 31, (S)-N-(1-amino-3-methyl-1-oxobutan-2-yl)-1-(4-fluorobutyl)-1H-pyrrolo[2,3-b]pyridine-3-carboxamide]",,,,"98 ± 4 % CP55,940",137,,1400,,"82 ± 4^d % CP55,940",,DNC^b,> 10000,1380,
"CC(C)(C)[C@H](NC(=O)c1nn(CCCCF)c2ccccc12)C(N)=O [Compound 29, (S)-N-(1-amino-3,3-dimethyl-1-oxobutan-2-yl)-1-(4-fluorobutyl)-1H-indazole-3-carboxamide]",77 to 79,"116± 2 % CP55,940",1.61,"103 ± 2 % CP55,940",5.28,4.07,0.69,,,,,,,
